Experiments:
[1] = 4 hr in-vivo study: meloxicam plasma concentration after oral delivery to rats; conditions: rat
From the text: Male Sprague-Dawley rats, 250-300 g, received with a surgically implanted jugular catheter in place from (Harlan or Taconic Laboratories, USA). Animals were housed one per polycarbonate cage utilizing individual cage cards, with free access to food and water in accordance with NIH guidelines. Animals were quarantined at least 24 hrs after arrival prior to use and patency of the implanted catheter determined on the day of the test. Environmental controls for the animal room were set to maintain 18 to 26° C., a relative humidity of 30 to 70%, a minimum of 10 air changes/hour, and a 12-hour light/12-hour dark cycle. […] Each rat was weighed and the dose volume adjusted accordingly so that the effect of weight variability on results of study was eliminated and that each rat received 1 mg/kg dose.
Briefly, using a gradient elution with a Waters Symmetry C18 column (Waters Inc. USA), LCMS with selective reaction monitoring, protein precipitation of the plasma sample using acetonitrile where an LOQ of 50 ng/ml was achieved. Pharmacokinetic parameters were calculated from individual animal samples using appropriate software (PK Solutions 2.0, Summit Research Services, Montrose, Calif., USA).

[2] = 24 hr in-vivo study: meloxicam plasma concentration and pharmacokinetics after oral (gavage) administration to male rats; conditions: male rats, 1 mg/kg oral; for AUC (area under the plasma concentration-time curve at 24 h) / Cmax (peak plasma concentration) / F (bioavailability): mean N = 5; for Time to Reach 0.59 μg/ml: calculated by interpolation of time vs. concentration data
From the text: Male Sprague-Dawley rats, 250-300 g, received with a surgically implanted jugular catheter in place from (Harlan or Taconic Laboratories, USA). Animals were housed one per polycarbonate cage utilizing individual cage cards, with free access to food and water in accordance with NIH guidelines. Animals were quarantined at least 24 hrs after arrival prior to use and patency of the implanted catheter determined on the day of the test. Environmental controls for the animal room were set to maintain 18 to 26° C., a relative humidity of 30 to 70%, a minimum of 10 air changes/hour, and a 12-hour light/12-hour dark cycle. Rats historically have been used in safety evaluation and PK screening studies and are recommended by appropriate regulatory agencies. […] Each rat was weighed and the dose volume adjusted accordingly so that the effect of weight variability on results of study was eliminated and that each rat received 1 mg/kg dose.
Pharmacokinetic parameters were calculated from individual animal samples using appropriate software (PK Solutions 2.0, Summit Research Services, Montrose, Calif., USA).

Compound	meloxicam plasma concentration ([1]; time 0 min) [µg/mL]	meloxicam plasma concentration ([1]; time 15 min, listed as 87) [µg/mL]	meloxicam plasma concentration ([1]; time 30 min, listed as 87) [µg/mL]	meloxicam plasma concentration ([1]; time 45 min, listed as 87) [µg/mL]	meloxicam plasma concentration ([1]; time 60 min, listed as 87) [µg/mL]	meloxicam plasma concentration ([1]; time 120 min, listed as 87) [µg/mL]	meloxicam plasma concentration ([1]; time 240 min, listed as 87) [µg/mL]	meloxicam plasma concentration ([1]; time 30 min) [µg/mL]	meloxicam plasma concentration ([1]; time 45 min) [µg/mL]	meloxicam plasma concentration ([1]; time 60 min) [µg/mL]	meloxicam plasma concentration ([1]; time 120 min) [µg/mL]	meloxicam plasma concentration ([1]; time 240 min) [µg/mL]	meloxicam plasma concentration ([2]; N = 5, 0.25 hour) [µg/mL]	meloxicam plasma concentration ([2]; N = 5, 0.5 hour) [µg/mL]	AUC (area under the plasma concentration-time curve at 24 h) [2] [ng·h/mL]	Cmax (peak plasma concentration) [2] [ng/mL]	F (bioavailability) [2] [%]	Time to Reach 0.59 μg/ml [2] [min]	meloxicam plasma concentration ([1]; time 15 min)
Cc1cnc(NC(=O)C2=C(O)c3ccccc3S(=O)(=O)N2C)s1.O=C(O)c1ccccc1O [Cocrystal 87, Meloxicam:Salicylic Acid Cocrystal Form I (1:1)]	0	23.61	26.76	28.85	26.79	34.16	36.54												
Cc1cnc(NC(=O)C2=C(O)c3ccccc3S(=O)(=O)N2C)s1.O=C(O)c1ccc2ccccc2c1O [Cocrystal 76, Meloxicam: 1-Hydroxy-2-Naphthoic Acid Cocrystal (1:1)]	0							39.24	45.29	44.60	46.24	52.24	2.1	2.49	62500	4150	98.3	6.5	
Cc1cnc(NC(=O)C2=C(O)c3ccccc3S(=O)(=O)N2C)s1.O=C(O)c1ccccc1 [Cocrystal 153, Meloxicam:Benzoic Acid Cocrystal (1:1)]	0							25.88	28.30	28.11	33.31	42.51							21.94 µg/mL
Cc1cnc(NC(=O)C2=C(O)c3ccccc3S(=O)(=O)N2C)s1.O=C(O)CCCC(=O)O [Cocrystal 92, Meloxicam:Glutaric Acid Cocrystal (1:1)]	0							13.16	19.11	27.72	35.94	55.35							5.61 µg/mL
Cc1cnc(NC(=O)C2=C(O)c3ccccc3S(=O)(=O)N2C)s1.Cc1cnc(NC(=O)C2=C(O)c3ccccc3S(=O)(=O)N2C)s1.O=C(O)CCC(=O)O [Cocrystal 144, Meloxicam:Succinic Acid Cocrystal (2:1)]	0								32.54	38.13	44.02	43.47	0.23		28400	1780	44.7	45.1	13.76 µg/mL
Cc1cnc(NC(=O)C2=C(O)c3ccccc3S(=O)(=O)N2C)s1.O=C(O)/C=C\C(=O)O [Cocrystal 21, Meloxicam:Maleic Acid Cocrystal (1:1)]	0.3							26.13	31.19	32.84	35.02	42.12	0.62	0.72	25300	1490	39.8	13.4	19.77 µg/mL
Cc1cnc(NC(=O)C2=C(O)c3ccccc3S(=O)(=O)N2C)s1.O=C(O)CO [Cocrystal 28, Meloxicam:Glycolic Acid Cocrystal (1:1)]	0							16.88	22.66	27.26	20.77	34.50							6.25 µg/mL
Cc1cnc(NC(=O)C2=C(O)c3ccccc3S(=O)(=O)N2C)s1.Cc1cnc(NC(=O)C2=C(O)c3ccccc3S(=O)(=O)N2C)s1.O=C(O)CC(O)C(=O)O [Cocrystal 154, Meloxicam:DL-Malic Acid Cocrystal (2:1)]	0							16.59	21.96	24.90	32.31	49.72							11.19 µg/mL
Cc1cnc(NC(=O)C2=C(O)c3ccccc3S(=O)(=O)N2C)s1.O=C(O)CCc1ccccc1 [Cocrystal 164, Meloxicam:Hydrocinnamic Acid Cocrystal (1:1)]	0							11.42	16.19	18.24	25.918	45.70							9.53 µg/mL
Cc1cnc(NC(=O)C2=C(O)c3ccccc3S(=O)(=O)N2C)s1.Cc1cnc(NC(=O)C2=C(O)c3ccccc3S(=O)(=O)N2C)s1.O=C(O)CCCCC(=O)O [Cocrystal 152, Meloxicam:Adipic Acid Cocrystal (2:1)]	0							22.85	28.37	30.09	38.23	47.85							9.72. μg/ml
Cc1cnc(NC(=O)C2=C(O)c3ccccc3S(=O)(=O)N2C)s1.Cc1cnc(NC(=O)C2=C(O)c3ccccc3S(=O)(=O)N2C)s1.O=C(O)C[C@H](O)C(=O)O [Cocrystal 71, Meloxicam: L-Malic Acid Cocrystal (2:1)]	0							32.05	30.38	30.95		38.59							24.98 µg/mL
Cc1cnc(NC(=O)C2=C(O)c3ccccc3S(=O)(=O)N2C)s1.Cc1cnc(NC(=O)C2=C(O)c3ccccc3S(=O)(=O)N2C)s1.O=C(O)/C=C/C(=O)O [Cocrystal 143, Meloxicam:Fumaric Acid Cocrystal (2:1)]	0							6.69	9.69	13.39	20.93	30.23							3.33 µg/mL
Cc1cnc(NC(=O)C2=C(O)c3ccccc3S(=O)(=O)N2C)s1.O=C(O)CC(=O)O [Cocrystal 22, Meloxicam:Malonic Acid Cocrystal (1:1)]	0							22.15	27.00	29.33	29.57								7.51 µg/mL
